Laboratory results reported in US9040529B2 (Vichem Chemie Kutató Kft., priority 2009, dated 2015).
pIC50: −log10 of the molar value. Structures can show the parent of a compound that is named as a salt.

Target: T1, human CDK9/CyclinT kinase complex (Homo sapiens, UniProt P50750)
T1 construct: purchased Proqinase 0371-0345-1
Assay: In vitro CDK9/CyclinT assay (IMAP fluorescence polarization kinase assay)
Type: biochemical
Conditions: for pIC50: 5 nM CDK9/CyclinT, 400 nM TAMRA-Rbtide, 12 μM ATP, 1 hour at room temperature, read-out: CDK9 inhibitory range
Procedure: In Vitro CDK9/CyclinT Assay
The activity of the compounds described in the present invention can be determined by the following kinase assay, which measures the phosphorylation of a fluorescently-labeled peptide by human CDK9/CyclinT kinase complex by fluorescent polarization using a commercially available IMAP Screening Express Assay Kit (Molecular devices).
CDK9 kinase assays were performed in low protein binding 384-well plates (Corning 3676). Test compounds were diluted in 100% DMSO to 5 mM stock concentration, then further dilutions were made in H2O or 100% DMSO to desirable concentrations.
Each reaction consisted of 5 nM enzyme: CDK9/CyclinT (Proqinase cat#0371-0345-1), 400 nM TAMRA-Rbtide (synthetic 15-mer peptide derived from human retinoblastoma tumor suppressor protein labelled with TAMRA dye, Genecust Europe), 12 μM ATP (=Kmapp, Sigma-Aldrich) and kinase buffer: 20 mM MOPS pH 7 (Sigma-Aldrich), 1 mM DTT (Sigma-Aldrich), 10 mM MgCl2 (Sigma-Aldrich), 0.01% Tween 20 (Sigma-Aldrich).
For each reaction, 4 or 6 μl containing TAMRA-Rbtide, ATP and kianse buffer were combined with 2 μl diluted compound in H2O or 0.028 μl compound in 100% DMSO. The kinase reaction was started by the addition of 2 μl diluted enzyme. The reaction was allowed to run for 1 hours at room temperature. The reaction was stopped by adding 15 μl IMAP beads (1:400 beads in progressive (100% buffer A) 1× buffer). After an additional 1 hours, fluorescent polarization (Ex: 550-10 nm, Em: 590-10 nm, Dich: 561 nm) was measured using an Analyst GT (Molecular devices).

T1 sequence (P50750 whole entry): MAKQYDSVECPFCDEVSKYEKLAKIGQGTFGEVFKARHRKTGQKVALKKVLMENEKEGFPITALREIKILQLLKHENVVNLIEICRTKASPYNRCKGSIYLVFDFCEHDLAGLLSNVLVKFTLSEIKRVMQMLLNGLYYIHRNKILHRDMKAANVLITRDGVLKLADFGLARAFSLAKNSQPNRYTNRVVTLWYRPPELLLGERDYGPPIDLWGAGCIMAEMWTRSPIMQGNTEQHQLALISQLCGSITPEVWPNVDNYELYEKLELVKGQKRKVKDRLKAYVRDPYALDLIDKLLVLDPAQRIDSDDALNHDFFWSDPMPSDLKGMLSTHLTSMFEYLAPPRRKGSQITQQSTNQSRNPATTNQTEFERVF
T1 sequence (O60563 whole entry partner): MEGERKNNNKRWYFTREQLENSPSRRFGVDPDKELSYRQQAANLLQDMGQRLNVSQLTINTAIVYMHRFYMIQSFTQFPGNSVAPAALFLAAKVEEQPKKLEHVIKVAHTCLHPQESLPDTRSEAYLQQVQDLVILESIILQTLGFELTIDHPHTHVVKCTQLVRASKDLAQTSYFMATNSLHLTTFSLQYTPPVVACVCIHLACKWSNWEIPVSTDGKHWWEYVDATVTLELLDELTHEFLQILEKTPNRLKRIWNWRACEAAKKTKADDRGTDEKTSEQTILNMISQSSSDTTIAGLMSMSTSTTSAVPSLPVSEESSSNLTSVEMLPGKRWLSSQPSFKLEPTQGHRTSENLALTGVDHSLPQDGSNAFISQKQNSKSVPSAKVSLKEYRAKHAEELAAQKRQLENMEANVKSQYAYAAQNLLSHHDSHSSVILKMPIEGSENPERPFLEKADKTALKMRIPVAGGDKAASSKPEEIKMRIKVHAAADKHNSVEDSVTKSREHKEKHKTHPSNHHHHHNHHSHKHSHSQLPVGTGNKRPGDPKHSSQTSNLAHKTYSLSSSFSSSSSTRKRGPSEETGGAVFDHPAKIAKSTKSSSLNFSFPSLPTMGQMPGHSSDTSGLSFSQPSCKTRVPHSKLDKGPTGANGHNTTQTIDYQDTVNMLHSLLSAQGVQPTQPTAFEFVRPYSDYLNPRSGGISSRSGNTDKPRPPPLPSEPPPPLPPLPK

SMILES	pIC50	CDK9 inhibitory effect
Clc1cc(Nc2cccc(CNc3nc4ccccc4[nH]3)c2)ncn1 [Example 59, (1H-Benzoimidazol-2-yl)-[3-(6-chloro-pyrimidin-4-ylamino)-benzyl]-amine]	< 5.00	–
CS(=O)(=O)NCc1cccc(Nc2cc(-c3cccc(C(N)=O)c3)ncn2)c1 [Example 20, 3-{6-[3-(Methanesulfonylamino-methyl)-phenylamino]-pyrimidin-4-yl}-benzamide]	> 5.00	–
COc1ccccc1-c1cc(Nc2cccc(CNC(=O)Nc3ccc(F)cc3)c2)ncn1 [Example 85, 1-(4-Fluoro-phenyl)-3-{3-[6-(2-methoxy-phenyl)-pyrimidin-4-ylamino]-benzyl}-urea]	> 5.00	–
Cc1ccccc1-c1cc(Nc2cccc(CNS(C)(=O)=O)c2)ncn1 [Example 11, N-[3-(6-o-Tolyl-pyrimidin-4-ylamino)-benzyl]-methanesulfonamide]	> 5.00	–
CS(=O)(=O)NCc1ccc(Nc2cc(-c3ccccc3F)ncn2)cc1 [Example 44, N-{4-[6-(2-Fluoro-phenyl)-pyrimidin-4-ylamino]-benzyl}-methanesulfonamide]	> 5.00	–
CS(=O)(=O)NCc1cccc(Nc2cc(-c3ccccc3C(F)(F)F)ncn2)c1 [Example 18, N-{3-[6-(2-Trifluoromethyl-phenyl)-pyrimidin-4-ylamino]-benzyl}-methanesulfonamide]	< 5.00	–
COc1ccc(C)cc1-c1cc(Nc2cccc(CNS(C)(=O)=O)c2)ncn1 [Example 26, N-{3-[6-(2-Methoxy-5-methyl-phenyl)-pyrimidin-4-ylamino]-benzyl}-methanesulfonamide]	> 5.00	–
CS(=O)(=O)NCc1ccc(Nc2cc(-c3cccc(N)c3)ncn2)cc1 [Example 46, N-{4-[6-(3-Amino-phenyl)-pyrimidin-4-ylamino]-benzyl}-methanesulfonamide hydrochloride]	> 5.00	–
Clc1cc(Nc2cccc(Cn3ccc4ccccc43)c2)ncn1 [Example 90, (6-Chloro-pyrimidin-4-yl)-(3-indol-1-ylmethyl-phenyl)-amine]	< 5.00	–
Clc1cc(Nc2cccc(Cn3cnc4ccccc43)c2)ncn1 [Example 63, (3-Benzoimidazol-1-ylmethyl-phenyl)-(6-chloro-pyrimidin-4-yl)-amine]	> 5.00	–
COc1ccccc1-c1cc(Nc2cccc(Cn3c(CN4CCOCC4)nc4ccccc43)c2)ncn1 [Example 93, [6-(2-Methoxy-phenyl)-pyrimidin-4-yl]-[3-(2-morpholin-4-ylmethyl-benzoimidazol-1-ylmethyl)-phenyl]-amine]	> 5.00	–
CS(=O)(=O)NCc1ccc(Nc2cc(-c3ccccc3)ncn2)cc1 [Example 45, N-[4-(6-Phenyl-pyrimidin-4-ylamino)-benzyl]-methanesulfonamide]	> 5.00	–
CS(=O)(=O)NCc1cccc(Nc2cc(-c3ccc(F)cc3F)ncn2)c1 [Example 17, N-{3-[6-(2,4-Difluoro-phenyl)-pyrimidin-4-ylamino]-benzyl}-methanesulfonamide]	> 5.00	–
C[S+]([O-])c1ccccc1-c1cc(Nc2cccc(CNS(C)(=O)=O)c2)ncn1 (stereo not drawn) [Example 29, N-{3-[6-(2-Methanesulfinyl-phenyl)-pyrimidin-4-ylamino]-benzyl}-methanesulfonamide]	> 5.00	–
COc1cccc(-c2cc(Nc3ccc(CNS(C)(=O)=O)cc3)ncn2)c1 [Example 47, N-{4-[6-(3-Methoxy-phenyl)-pyrimidin-4-ylamino]-benzyl}-methanesulfonamide]	> 5.00	–
COc1ccc(-c2cc(Nc3cccc(CNS(C)(=O)=O)c3)ncn2)c(OC)c1 [Example 24, N-{3-[6-(2,4-Dimethoxy-phenyl)-pyrimidin-4-ylamino]-benzyl}-methanesulfonamide]	> 6.00	–
CS(=O)(=O)NCc1cccc(Nc2cc(-c3ccccc3OCc3ccc(F)cc3)ncn2)c1 [Example 10, N-(3-{6-[2-(4-Fluoro-benzyloxy)-phenyl]-pyrimidin-4-ylamino}-benzyl)-methanesulfonamide]	> 6.00	–
COc1ccc(F)cc1-c1cc(Nc2cccc(CNc3nc4ccccc4[nH]3)c2)ncn1 [Example 62, (1H-Benzoimidazol-2-yl)-{3-[6-(5-fluoro-2-methoxy-phenyl)-pyrimidin-4-ylamino]-benzyl}-amine]	> 6.00	–
Oc1ccc(-c2cc(Nc3cccc(CNc4nc5ccccc5[nH]4)c3)ncn2)cc1 [Example 78, 4-(6-{3-[(1H-Benzoimidazol-2-ylamino)-methyl]-phenylamino}-pyrimidin-4-yl)-phenol]	> 6.00	–
CS(=O)(=O)NCc1cccc(Nc2cc(-c3ccccc3Oc3ccccc3)ncn2)c1 [Example 4, N-{3-[6-(2-Phenoxy-phenyl)-pyrimidin-4-ylamino]-benzyl}-methanesulfonamide]	> 6.00	–

Further lines, results first:

pIC50	CDK9 inhibitory effect	SMILES
> 6.00	–	CS(=O)(=O)NCc1ccc(Nc2cc(-c3ccc(O)cc3)ncn2)cc1 [Example 76, N-{4-[6-(4-Hydroxy-phenyl)-pyrimidin-4-ylamino]-benzyl}-methanesulfonamide]
> 6.00	–	Oc1ccc(-c2cc(Nc3cccc(Cn4cnc5ccccc54)c3)ncn2)cc1 [Example 82, 4-[6-(3-Benzoimidazol-1-ylmethyl-phenylamino)-pyrimidin-4-yl]-phenol]
> 6.00	–	CS(=O)(=O)NCc1cccc(Nc2cc(-c3cccc4c3OCO4)ncn2)c1 [Example 27, N-[3-(6-Benzo[1,3]dioxol-4-yl-pyrimidin-4-ylamino)-benzyl]-methanesulfonamide]
> 7.00	nanomolar or low nanomolar range	CC(C)Oc1ccccc1-c1cc(Nc2ccc(CNS(C)(=O)=O)cc2)ncn1 [Example 56, N-{4-[6-(2-Isopropoxy-phenyl)-pyrimidin-4-ylamino]-benzyl}-methanesulfonamide]
> 6.00	–	COc1cccc(-c2cc(Nc3ccc(CNS(C)(=O)=O)cc3)ncn2)c1OC [Example 55, N-{4-[6-(2,3-Dimethoxy-phenyl)-pyrimidin-4-ylamino]-benzyl}-methanesulfonamide]
> 6.00	–	COc1ccccc1-c1cc(Nc2cccc(CNS(=O)(=O)c3c(Cl)cccc3Cl)c2)ncn1 [Example 70, 2,6-Dichloro-N-{3-[6-(2-methoxy-phenyl)-pyrimidin-4-ylamino]-benzyl}-benzenesulfonamide]
> 6.00	–	COc1cc(F)ccc1-c1cc(Nc2cccc(CNc3nc4ccccc4[nH]3)c2)ncn1 [Example 61, (1H-Benzoimidazol-2-yl)-{3-[6-(4-fluoro-2-methoxy-phenyl)-pyrimidin-4-ylamino]-benzyl}-amine]
> 6.00	–	Oc1ccc(-c2cc(Nc3ccc(Cn4cnc5ccccc54)cc3)ncn2)cc1 [Example 89, 4-[6-(4-Benzoimidazol-1-ylmethyl-phenylamino)-pyrimidin-4-yl]-phenol]
> 7.00	nanomolar or low nanomolar range	COc1ccccc1-c1cc(Nc2cccc(CN)c2)ncn1 [Example 69, (3-Aminomethyl-phenyl)-[6-(2-methoxy-phenyl)-pyrimidin-4-yl]-amine hydrochloride]
> 7.00	nanomolar or low nanomolar range	COc1cc(Cl)ccc1-c1cc(Nc2ccc(CNS(C)(=O)=O)cc2)ncn1 [Example 54, N-{4-[6-(4-Chloro-2-methoxy-phenyl)-pyrimidin-4-ylamino]-benzyl}-methanesulfonamide]
> 6.00	–	CC(C)Oc1cc(F)ccc1-c1cc(Nc2ccc(Cn3cnc4ccccc43)cc2)ncn1 [Example 88, (4-Benzoimidazol-1-ylmethyl-phenyl)-[6-(4-fluoro-2-isopropoxy-phenyl)-pyrimidin-4-yl]-amine]
> 7.00	nanomolar or low nanomolar range	CCCOc1ccccc1-c1cc(Nc2ccc(CNS(C)(=O)=O)cc2)ncn1 [Example 53, N-{4-[6-(2-Propoxy-phenyl)-pyrimidin-4-ylamino]-benzyl}-methanesulfonamide]
> 6.00	–	CS(=O)(=O)NCc1ccc(Nc2cc(-c3ccccc3Oc3ccccc3)ncn2)cc1 [Example 40, N-{4-[6-(2-Phenoxy-phenyl)-pyrimidin-4-ylamino]-benzyl}-methanesulfonamide]
> 7.00	nanomolar or low nanomolar range	COc1ccccc1-c1cc(Nc2cccc(CNS(C)(=O)=O)c2)ncn1 [Example 6, N-{3-[6-(2-Methoxy-phenyl)-pyrimidin-4-ylamino]-benzyl}-methanesulfonamide]
> 6.00	–	CC(C)Oc1ccccc1-c1cc(Nc2cccc(CNS(C)(=O)=O)c2)ncn1 [Example 8, N-{3-[6-(2-Isopropoxy-phenyl)-pyrimidin-4-ylamino]-benzyl}-methanesulfonamide]
> 7.00	nanomolar or low nanomolar range	CCOc1ccccc1-c1cc(Nc2cccc(CNS(C)(=O)=O)c2)ncn1 [Example 5, N-{3-[6-(2-Ethoxy-phenyl)-pyrimidin-4-ylamino]-benzyl}-methanesulfonamide]
